Experimental data taken from paper PMC7848861 (Frontiers in Microbiology, 2021).
Peptide text beside a SMILES is read from it.

Tests used:
[1] = system: primary human macrophages; test: Toxicity of peptides against macrophages (PrestoBlue); type: cell-based; settings: three independent experiments
Method: Human peripheral blood mononuclear cells (PBMC) were isolated by density gradient centrifugation (Ficoll-Paque™ Plus; GE Healthcare) of buffy coat preparations from anonymous donors (Institute of Transfusion Medicine, Ulm University). Monocytes were isolated from PBMCs by adherence on tissue culture treated plastic flasks (Falcon, Corning, NY, United States). Monocyte-derived macrophages were generated by incubation with granulocyte-macrophage colony-stimulating factor (10 ng/ml; Miltenyi Biotec, Bergisch Gladbach, Germany) in Macrophage-Serum Free Medium (M-SFM; Gibco, ThermoFisher Scientific, Schwerte, Germany) for 6 days.
About 1 × 10^5 macrophages were incubated with peptides for 18 h in a 96-well plate, followed by addition of 10% PrestoBlue™ (Thermo Fisher) for 20 min. The non-fluorescent resazurin-based PrestoBlue is reduced to fluorescent resorufin by mitochondrial enzymes of viable cells ([Xu et al., 2015]). The fluorescence intensity (FI) was measured at λex 560 nm and λem 600 nm using Infinite 200 PRO (Tecan, Männedorf, Suisse) plate reader. Cell viability (%) was calculated using the following formula where the ratio of the FIs of the sample and the untreated control is calculated after subtracting the background FI introduced by the same volume of cell culture medium: [FI (sample)-FI (background)]/[FI (untreated control)-FI (background)] × 100.

[2] = Half-life of Angie1 in human serum; type: in vitro ADME; settings: human serum (Lonza 14-490E) spiked with 10 μM, 37°C, aliquots 5–120 min, LC-MS (Orbitrap Elite) signal area, triplicates, GraphPad Prism
Method: Human serum (14-490E, Lonza, Basel, Switzerland) was spiked with 10 μM Angie1 and incubated at 37°C for 2 h in triplicates. After 5, 10, 20, 30, 45, 60, 90, and 120 min; aliquots (5 μl) were diluted with 1.5 ml ice cold TFA (0.1%). Around 15 μl of each sample was analyzed using an Orbitrap Elite system (Thermo Fisher Scientific) as described above. XCalibur Qual Browser (Thermo Fisher Scientific) was used for visualization of the total ion chromatograms and spectra, as well as for signal area calculation. The theoretical spectrum of Angie1 and its degradation products were generated and the highest intensity signals were used as reference for detecting Angie1 and its degradation products. Plot graphs (signal area vs. time) and half-lives were calculated with GraphPad Prism 8.0 (GraphPad, La Jolla, CA, United States).

[3] = system: zebrafish embryos; test: Toxicity against zebrafish embryos; type: in vivo; settings: 1, 10, and 100 μM, exposure 24 h from 24 hpf, scored at 48 hpf, n = 60 embryos each group
Method: Wild-type zebrafish embryos were dechorionated at 24 h post fertilization (hpf) using digestion with 1 mg/ml pronase (Sigma) in E3 medium (83 μM NaCl, 2.8 μM KCl, 5.5 μM CaCl2, and 5.5 μM MgSO4). Embryos were exposed for 24 h, in groups of three, to 100 μl of E3 medium containing Angie1 at 1, 10, and 100 μM. Each concentration was tested in two independent assays, each of which was performed on 10 × 3 embryos. The peptide solvent (PBS), diluted in E3, was used as negative control at the same amount as introduced by the highest peptide concentration. As positive control for acute toxicity/cytotoxicity the pleurocidin antimicrobial peptide NRC-03 ([…]-[…]-NH2) was used at a concentration of 6 μM as described ([Morash et al., 2011]). Abamectin at a concentration of 3.125 μM was used as positive control for neurotoxicity ([Raftery et al., 2014]). At 48 hpf (after 24 h of incubation) embryos were scored in a stereomicroscope for signs of acute toxicity/cytotoxicity (lysis and/or necrosis), developmental toxicity (delay and/or malformations), or cardiotoxicity (heart edema and/or reduced or absent circulation). Each embryo was also touched with a needle and reduced or absent touch response (escape movements) was evaluated as signs of neurotoxicity if and only if no signs of acute toxicity were present in the same embryo. […]

[4] = system: human macrophages; test: Uptake by macrophages (flow cytometry, confocal laser microscopy); type: cell-based; settings: Atto647N-labeled peptide, 54 μM, 18 h, alone or incorporated into liposomes; flow cytometry and confocal microscopy, three donors
Method: For investigation of Angie1 internalization, 1 × 10^6 macrophages were incubated with Angie1-Atto647N or Angie1-Atto647N Lip for 18 h. Samples were then analyzed using a FACS Calibur (BD Biosciences) with FlowJo v10.4.1 (BD). For confocal laser microscopy, 0.1 × 10^6 macrophages were seeded in 200 μl M-SFM in an eight-chamber slide (Thermo Fisher) and incubated with Angie1-Atto 647 N (54 μM) or Angie1-Atto 647 N Lip (54 μM) or Angiogenin-Atto647N Lip. After overnight incubation, cells were fixed (4% PFA, Sigma-Aldrich), followed by blocking in 2% BSA. Subsequently macrophages were labeled with major histocompatibility antigen class II antibodies (HLA-DR; 1:200, clone L243, Leinco, St. Louis, MS, United States) detected by Cy2-conjugated goat anti-mouse antibodies (1:200, Dianova, Hamburg, Germany). Cell nuclei were stained with DAPI (1:200, Sigma-Aldrich) diluted in 1% BSA and 0.1% Triton X-100 in PBS (all Sigma-Aldrich). Images were acquired using the inverted laser scanning confocal microscope LSM 710 (Zeiss, Oberkochen, Germany). Image processing was performed using ImageJ software (v 1.52c).

[5] = Solubility in water; type: physicochemical
[6] = system: Mycobacterium tuberculosis H37Rv (extracellular Mtb); type: cell-based; settings: 100 μM peptide; 2 × 10^6 Mtb, 96 h incubation, 3H-Uracil uptake vs untreated control; mean ± SD, triplicates of three independent experiments
[7] = system: intracellular Mtb in primary human macrophages; type: cell-based, Mycobacterium tuberculosis; settings: 10 μM, 4 days, MOI 5, CFU on 7H11 after 21 days; diluent control 9.5-fold; p < 0.05; six donors
[8] = system: primary human monocytes or macrophages; test: Chemotaxis or cytokine release by monocytes or macrophages (not shown); type: cell-based; settings: data not shown

CC[C@H](C)[C@H](NC(=O)[C@H](C)NC(=O)[C@H](CCCCN)NC(=O)[C@@H](NC(=O)[C@H](CO)NC(=O)[C@@H](NC(=O)[C@H](CCCCN)NC(=O)[C@H](CC(N)=O)NC(=O)CNC(=O)[C@H](Cc1c[nH]cn1)NC(=O)[C@@H](NC(=O)[C@H](Cc1ccccc1)NC(=O)[C@@H](NC(=O)[C@H](CC(N)=O)NC(=O)[C@@H](NC(=O)[C@H](C)NC(=O)[C@@H](N)CCCCN)[C@@H](C)CC)[C@@H](C)O)[C@@H](C)CC)[C@@H](C)CC)[C@@H](C)CC)C(=O)O [Angie1] (H-KAINTFIHGNKISIKAI-OH)
Toxicity for primary human macrophages ([1]; Angie1 at 27, 54, or 108 μM, PrestoBlue, 24 h): not toxic
Half-life in human serum [2]: 3 min
half-life at 10 μM [2]: 3.06 min
Toxicity to zebrafish embryos (acute/cyto-, cardio-, developmental, neurotoxicity) [3]: no toxicity
Uptake by macrophages [4]: equally efficient
Solubility in water [5]: soluble in water

Angiogenin: endogenous 123 amino acid, 14.1 kDa protein identified in hemofiltrate; tested as synthetic Angiogenin
Antimicrobial activity against extracellular Mtb [6]: 94 ± 2%
Viability of macrophages ([1]; Angiogenin 10 μM, 18 h (legend: 24 h), PrestoBlue resazurin metabolism): did not affect the viability
Multiplication of intracellular Mtb (n-fold growth d4 vs d0) [7]: 5.2 fold
Induction of chemotaxis or cytokine release [8]: do not induce chemotaxis or cytokine release
